In data set [1] the test system is tri-amino peptidase activity in mucinous cyst fluid. The data set can be described thus: MSP-MS assay of mucinous cyst fluid with protease inhibitors. The class given is biochemical, human. The conditions noted are these: 2 μmol/L pepstatin; for effect on tri-amino peptidase activity (cleavage after third amino acid): pH 3.5, 10 μmol/L AAF-CMK. The method, then:
The MSP-MS assay was performed as described previously (Ivry et al., 2017; O'Donoghue et al., 2012). Cyst fluid protein concentration was first determined through the BCA assay (Thermo Fisher, 23225). Cyst fluid samples were then diluted to 100 μg/mL in pH 3.5 acetate buffer or pH 7.5 phosphate buffer. The 228 tetradecapeptide was split into two pools of 114 peptides each and diluted to 1 μmol/L in either acetate or phosphate buffer. Equal volumes of diluted cyst fluid and peptide pools were combined and incubated at room temperature. After 15 and 60 minutes, 30 μL aliquots were removed and protease activity was quenched with 8 mol/L guanidinium hydrochloride. Aliquots were then desalted using C18 tips (Rainin). The following inhibitors were included in specified MSP-MS assays: 1 mmol/L AEBSF (Sigma, A8456), 2 mmol/L E64 (Sigma, E3132), 2 μmol/L pepstatin (Sigma, P5318), 2 mmol/L 1,10-phenanthroline (Sigma, 131337), and 10 μmol/L AAF-CMK (Enzo, BML-PI123).
Mass spectrometry analysis was performed with an LTQ Orbitrap XL Mass Spectrometer (Thermo Fisher) coupled to an Ultra Performance Liquid Chromatography (UPLC) System (Waters). Peptides were separated over a C18 column (Thermo Fisher, ES800) with a 65-minute linear gradient from 2%-30% acetonitrile. MS spectra were acquired over an m/z range of 325-1,500 and MS/MS spectra were obtained for the six most intense precursor ions by collision-induced dissociation (CID). Peak lists were generated using MSConvert and searched in Protein Prospector v. 5.10.0 against a database containing the sequences from the 228 tetradecapeptide library. Searches used a mass tolerance of 20 ppm for precursors and 0.8 Da for fragments. The following variable modifications were allowed: N-terminal pyroglutamate conversion from glutamine or glutamate and oxidation of tryptophan, proline, and tyrosine. Search outputs were then processed using the MSP-xtractor software (http://www.craiklab.ucsfedu/extractor.html). […] Spectral counts were used for relative quantification of MSP-MS results.

The target of data set [2] is most rapidly cleaved internally quenched fluorescent TPP1 substrate (P3 to P4' sequence from the MSP-MS library, lysine-fluorophore in P1).

The results in this text go back to patent US20220381784A1, “SYSTEMS COMPRISING SUBSTRATES AND METHODS OF USING THE SAME FOR DETECTION OF PANCREATIC CANCERS” (THE REGENTS OF THE UNIVERSITY OF CALIFORNIA, priority 2019, published 2022).

Square brackets hold non-standard residues; d marks the D form. Peptide text beside a SMILES is read from it. * marks the point of attachment. Sta = CC(C)C[C@H](N)[C@@H](O)CC(=O)O; Isovaleryl = CC(C)CC(=O)*; CH2Cl = ClC*

In the case of `C[C@H](N)C(=O)N[C@@H](C)C(=O)N[C@@H](Cc1ccccc1)C(=O)CCl` [tripeptide chloromethylketone inhibitor, Ala-Ala-Phe-chloromethylketone] (H-Ala-Ala-Phe-CH2Cl), the “effect on tri-amino peptidase activity (cleavage after third amino acid)” value in data set [1] was “almost completely ablated”.
In the case of `CC(C)CC(=O)N[C@H](C(=O)N[C@H](C(=O)N[C@@H](CC(C)C)[C@@H](O)CC(=O)N[C@@H](C)C(=O)N[C@@H](CC(C)C)[C@@H](O)CC(=O)O)C(C)C)C(C)C` [pepstatin] (Isovaleryl-VV[Sta]A[Sta]-OH), in data set [1] (acidic pH), the “number of detected peptide cleavages at other positions enriched in mucinous cysts (B6, B8, B9, B10)” value is reported as “decrease”. In addition, the “effect on tri-amino peptidase activity (cleavage after third amino acid)” value in data set [1] is on record as “not inhibited”.

B1: recombinant tripeptidyl peptidase 1 (TPP1) (protein)
chain: LHLGVTPSVIRKRYNLTSQDVGSGTSNNSQACAQFLEQYFHDSDLAQFMRLFGGNFAHQASVARVVGQQGRGRAGIEASLDVQYLMSAGANISTWVYSSPGRHEGQEPFLQWLMLLSNESALPHVHTVSYGDDEDSLSSAYIQRVNTELMKAAARGLTLLFASGDSGAGCWSVSGRHQFRPTFPASSPYVTTVGGTSFQEPFLITNEIVDYISGGGFSNVFPRPSYQEEAVTKFLSSSPHLPPSSYFNASGRAYPDVAALSDGYWVVSNRVPIPWVSGTSASTPVFGGILSLINEHRILSGRPPLGFLNPRLYQQHGAGLFDVTRGCHESCLDEEVEGQGFCSGPGWDPVTGWGTPNFPALLKTLLNP
Regarding B1, the “kcat/Km (cleavage of internally quenched fluorescent substrate, fluorescence assay, pH 4.5)” value in data set [2] was “kcat/Km of 2.5 µmol^-1s^-1”.
